# Data published in patent US20190117770A1, “USES OF IMMUNOCONJUGATES TARGETING CD138” (Biotest AG, priority 2011, published 2019).
# Columns and labels:
# [1] = literature; cited from earlier work
# [2] = tested on: primary mammary tumor of a patient; experiment: Mammary carcinoma xenograft; type: in vivo, NMRI (nude) mice
# [3] = tested on: human derived breast cancer model with CD138 IHC score 1-2; experiment: Breast cancer model, CD138 IHC score 1-2; type: in vivo, NMRI nude mice; settings: 10 mg/kg
# Excerpt: No difference in the treatment regimens was observed. The results are shown in terms of the effect on the mean relative tumor volume in the model relative to an intravenous administration of PBS. For the calculation of the median relative tumor volume on day, see FIG. 33.
# [4] = tested on: primary pancreatic tumor; experiment: Example 9 xenograft (FIG. 38); type: in vivo, NMRI (nude) mice; settings: 10 mg/kg; treatment period and treatment free period
# Excerpt: The results are shown in terms of the effect on the mean relative tumor volume.
# [5] = tested on: human derived breast cancer model with CD138 IHC score 2-3; experiment: Breast cancer model, CD138 IHC score 2-3; type: in vivo, NMRI nude mice; settings: 10 mg/kg
# Excerpt: The results are shown in terms of the effect on the mean relative tumor volume in the model relative to an intravenous administration of PBS. For the calculation of the median relative tumor volume on day, see FIG. 33.
# [6] = tested on: RPMI 8226; experiment: Synergy determination in cell lines (Chou and Talalay); type: cell-based; settings: drug in combination with BT062
# Procedure: Combination studies in xenograph mouse models were preceded by studies in cell lines. […] Here, IC50 values for the cytotoxic effects for each drug and each cell line are calculated, and then IC50 ratios for each drug pair. The cells were then exposed to dilution series of either these drug mixtures, or the drugs alone. Experimental data were analyzed using the CompuSyn software (ComboSyn, Inc., Paramus, N.J.). Combination Indexes (CI) for each independent experiment were calculated and reported separately. In the analysis, CI less than 1, equal to 1 and more than 1 indicates synergy, additivity and antagonism, respectively. According to the classification of T. C.
# [7] = tested on: CD138 expression; experiment: Effect of lenalidomide on CD138 expressing cells in vitro; settings: different cell lines, 24 h incubation (FIG. 32)
# [8] = tested on: MOLP8 multiple myeloma cells; experiment: MOLP8 xenograft, combination BT062 and VELCADE; type: in vivo, mice
# Excerpt: The ACTIVITY RATING is another measurement for the effects of a combination. This rating is based on the Log10 cell kill
# where (T-C) or tumor growth delay, is the median time in days required for the treatment group (T) and the control group (C) tumours, to reach a predetermined size (600 mm^3).
# [9] = Clinical trials of other immunoconjugates (literature); type: in vivo, human; settings: assuming 70 kg and 1.9 m^2 body surface area
# [10] = cited from earlier work
molecule,measurement,setting,value
"COc1cc2cc(c1Cl)N(C)C(=O)C[C@H](OC(=O)[C@H](C)N(C)C(=O)CCS)[C@]1(C)O[C@H]1[C@H](C)[C@@H]1C[C@@](O)(NC(=O)O1)[C@H](OC)/C=C/C=C(\C)C2 [DM1, N^2-deacetyl-N^2-(3-mercapto-1-oxopropyl)-maytansine]","cytotoxicity, fold more cytotoxic than maytansine",[1],3- to 10 fold
"COc1cc2cc(c1Cl)N(C)C(=O)C[C@H](OC(=O)[C@H](C)N(C)C(=O)CCC(C)(C)S)[C@]1(C)O[C@H]1[C@H](C)[C@@H]1C[C@@](O)(NC(=O)O1)[C@H](OC)/C=C/C=C(\C)C2 [DM4, N^2′-deacetyl-N^2′-(4-methyl-4-mercapto-1-oxopentyl)-maytansine, reference compound]",tumor response,[2]; amount corresponding to that in 4 mg BT062,did not result in tumor response
"CC(=O)O[C@@]12CO[C@@H]1C[C@H](O)[C@@]1(C)C(=O)[C@H](O)C3=C(C)[C@@H](OC(=O)[C@H](O)[C@@H](NC(=O)OC(C)(C)C)c4ccccc4)C[C@@](O)([C@@H](OC(=O)c4ccccc4)[C@H]21)C3(C)C [Docetaxel, reference compound]",tumor response,[3],did not respond
same,tumor response,[4],complete remission
same,tumor response,[5],response
Nc1cccc2c1CN(C1CCC(=O)NC1=O)C2=O (centres unmarked) [Lenalidomide],Estimate of synergistic result,[6],Synergistic
same,CD138 expression,[7],concentration dependent CD138 decrease
"CC(=O)O[C@H]1C(=O)[C@@]2(C)[C@H]([C@H](OC(=O)c3ccccc3)[C@]3(O)C[C@H](OC(=O)[C@H](O)[C@@H](NC(=O)c4ccccc4)c4ccccc4)C(C)=C1C3(C)C)[C@]1(OC(C)=O)CO[C@@H]1C[C@@H]2O [Taxol, Paclitaxel, reference compound]",tumor response,[2]; 10 mg/kg,only a minor tumor growth delay
"CC(C)C[C@H](NC(=O)[C@H](Cc1ccccc1)NC(=O)c1cnccn1)B(O)O [Velcade, bortezomib, reference compound]",effect on the tumor volume,[8]; VELCADE treatment alone (FIG. 31),no effect
same,Tumor free survivors day 67,[8]; Velcade 1 mg/kg,0/6
same,log cell kill,[8]; Velcade 1 mg/kg,0.0
COc1cc2cc(c1Cl)N(C)C(=O)C[C@H](OC(=O)[C@H](C)N(C)C(C)=O)[C@]1(C)O[C@H]1[C@H](C)[C@@H]1C[C@@](O)(NC(=O)O1)[C@H](OC)/C=C/C=C(\C)C2 [maytansine],"cytotoxicity, fold higher than Vinca alkaloids or taxol",[1],200-1000 fold
SAR3419,Corresponds to total concentration of,[9],110 mg
same,patients with a response,[10]; 22 patients at the MTD (55 mg/m^2),36%
same,patients achieving an objective response,"[10]; 38 patients at 20 mg/m^2 or higher, weekly, B-cell NHL",32%
same,"MTD, single administration every three weeks",[10]; literature,160 mg/m^2
SGN-35,Corresponds to total concentration of,[9],84 mg
same,"Once weekly regimen, dose administered",[10]; literature,Up to 1.2 mg/kg
"IMGN242: analog of cantuzumab mertansine, huC242-DM4 (conjugate, chains of the INN, looked up, DM4 maytansinoid conjugate) VH: QVQLVQSGAEVKKPGETVKISCKASDYTFTYYGMNWVKQAPGQGLKWMGWIDTTTGEPTYAQKFQGRIAFSLETSASTAYLQIKSLKSEDTATYFCARRGPYNWYFDVWGQGTTVTVSS VL: DIVMTQSPLSVPVTPGEPVSISCRSSKSLLHSNGNTYLYWFLQRPGQSPQLLIYRMSNLVSGVPDRFSGSGSGTAFTLRISRVEAEDVGVYYCLQHLEYPFTFGPGTKLELK",subjects experiencing dose-limiting toxicity,"[10]; 223 mg/m^2 once every 3 weeks, second cycle",2 of 6
"SGN-75: anti-CD70; MMAF (SEATTLE GENETICS) (conjugate, chains of the INN, looked up, MMAF conjugate) VH: QVQLVQSGAEVKKPGASVKVSCKASGYTFTNYGMNWVRQAPGQGLKWMGWINTYTGEPTYADAFKGRVTMTRDTSISTAYMELSRLRSDDTAVYYCARDYGDYGMDYWGQGTTVTVSS VL: DIVMTQSPDSLAVSLGERATINCRASKSVSTSGYSFMHWYQQKPGQPPKLLIYLASNLESGVPDRFSGSGSGTDFTLTISSLQAEDVAVYYCQHSREVPWTFGQGTKVEIK","MTD, once weekly regimen",[10]; literature,not been reached)
